How the values were obtained:
Assay type in all cases: in vivo
[1] = tested on: ryegrass, Italian (Italian ryegrass, Lolium multiflorum); test: Test A preemergence; settings: Lolium multiflorum, pre-emergence, 240 h, 0 to 100 scale where 0 is no effect and 100 is complete control, read-out: Ryegrass, Italian plant response rating
Outline: (§1)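 Visual injury, scored on a 0–100 scale relative to untreated controls, was recorded about 10 d after application. Treatments were a preemergence soil spray over planted seeds or a postemergence spray on plants at the one- to two-leaf stage, 2 to 10 cm tall, all in loam soil–sand blend in the greenhouse.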

[2] = tested on: ragweed (common ragweed, Ambrosia elatior); test: Test A preemergence; settings: Ambrosia artemisiifolia, pre-emergence, 240 h, 0 to 100 scale where 0 is no effect and 100 is complete control, read-out: Ragweed plant response rating
Outline: as §1

[3] = tested on: pigweed (Amaranthus retroflexus); test: Test A preemergence; settings: Amaranthus retroflexus, pre-emergence, 240 h, 0 to 100 scale where 0 is no effect and 100 is complete control, read-out: Pigweed plant response rating
[4] = tested on: giant foxtail (Setaria faberii); test: Test A preemergence; settings: Setaria faberi, pre-emergence, 240 h, Preemergence
Outline: as §1

[5] = tested on: barnyardgrass (Echinochloa crus-galli); test: Test A preemergence; settings: Echinochloa crus-galli, pre-emergence, 240 h, Preemergence
Outline: as §1

[6] = tested on: Kochia (Kochia scoparia); test: Test A preemergence; settings: Bassia scoparia, pre-emergence, 240 h, 0 to 100 scale where 0 is no effect and 100 is complete control, read-out: Kochia plant response rating
Outline: as §1

[7] = tested on: ryegrass, Italian (Italian ryegrass, Lolium multiflorum); test: Test A postemergence; settings: Lolium multiflorum, post-emergence, 240 h
Outline: as §1

[8] = tested on: ragweed (common ragweed, Ambrosia elatior); test: Test A postemergence; settings: Ambrosia artemisiifolia, post-emergence, 240 h
Outline: as §1

[9] = tested on: pigweed (Amaranthus retroflexus); test: Test A postemergence; settings: Amaranthus retroflexus, post-emergence, 240 h
Outline: as §1

[10] = tested on: giant foxtail (Setaria faberii); test: Test A postemergence; settings: Setaria faberi, post-emergence, 240 h
Outline: as §1

[11] = tested on: corn (Zea mays); test: Test A postemergence; settings: Zea mays, post-emergence, 240 h
Outline: as §1

[12] = tested on: blackgrass (Alopecurus myosuroides); test: Test A postemergence; settings: Alopecurus myosuroides, post-emergence, 240 h
Outline: as §1

[13] = tested on: Galium (catchweed bedstraw, Galium aparine); test: Test A postemergence; settings: Galium, post-emergence, 240 h
Outline: as §1

[14] = tested on: wheat (Triticum aestivum); test: Test A postemergence; settings: Triticum aestivum, post-emergence, 240 h
Outline: as §1

[15] = tested on: barnyardgrass (Echinochloa crus-galli); test: Test A postemergence; settings: Echinochloa crus-galli, post-emergence, 240 h
Outline: as §1

[16] = tested on: Kochia (Kochia scoparia); test: Test A postemergence; settings: Bassia scoparia, post-emergence, 240 h
Outline: as §1

[17] = tested on: ducksalad (Heteranthera limosa); test: Test B flooded paddy test; settings: Heteranthera limosa, 250 g ai/ha, Flood; 0 to 100 scale where 0 is no effect and 100 is complete control; read-out: Ducksalad plant response rating
Outline: (§2)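 Compound goes directly into floodwater once pots are flooded 3 cm above soil, targeting plants at two leaves; the water depth is then held for the test duration. Plants sit 13–15 d in a greenhouse and are rated visually, 100 denoting complete control.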

[18] = tested on: sedge, umbrella (small-flower umbrella sedge, Cyperus difformis); test: Test B flooded paddy test; settings: Cyperus difformis, 250 g ai/ha, Flood; 0 to 100 scale where 0 is no effect and 100 is complete control; read-out: Sedge, Umbrella plant response rating
Outline: as §2

[19] = tested on: rice (Oryra sativa); test: Test B flooded paddy test; settings: Oryza sativa, 250 g ai/ha, Flood; 0 to 100 scale where 0 is no effect and 100 is complete control; read-out: Rice plant response rating
Outline: as §2

[20] = tested on: barnyardgrass (Echinochloa crus-galli); test: Test B flooded paddy test; settings: Echinochloa crus-galli, 250 g ai/ha, Flood; 0 to 100 scale where 0 is no effect and 100 is complete control; read-out: Barnyardgrass plant response rating
Outline: as §2

[21] = 125 g ai/ha, preemergence, approx. 10 d

Compound: Cc1ccncc1NC(=O)[C@H]1C(=O)N(C)C[C@@H]1c1ccc(C(F)(F)F)cc1 [Compound 1068]
- pest or weed control at 31 g/ha ([1]; 31 g ai/ha, Preemergence): 0%
- pest or weed control at 125 g/ha [1, 21]: 0%
- pest or weed control at 31 g/ha ([2]; 31 g ai/ha, Preemergence): 0%
- pest or weed control at 125 g/ha [2, 21]: 0%
- pest or weed control at 31 g/ha ([3]; 31 g ai/ha, Preemergence): 0%
- pest or weed control at 125 g/ha [3, 21]: 0%
- pest or weed control at 31 g/ha ([4]; 31 g ai/ha, 0 to 100 scale where 0 is no effect and 100 is complete control, read-out: Foxtail, Giant plant response rating): 0%
- pest or weed control at 125 g/ha ([4]; 125 g ai/ha, visual injury rating after approximately 10 d, read-out: Foxtail, Giant plant response rating (0 to 100 scale, 0 is no effect, 100 is complete control)): 0%
- pest or weed control at 31 g/ha ([5]; 31 g ai/ha, 0 to 100 scale where 0 is no effect and 100 is complete control, read-out: Barnyardgrass plant response rating): 0%
- pest or weed control at 125 g/ha ([5]; 125 g ai/ha, visual injury rating after approximately 10 d, read-out: Barnyardgrass plant response rating (0 to 100 scale, 0 is no effect, 100 is complete control)): 0%
- pest or weed control at 31 g/ha ([6]; 31 g ai/ha, Preemergence): 0%
- pest or weed control at 125 g/ha [6, 21]: 0%
- pest or weed control at 125 g/ha ([7]; 125 g ai/ha, postemergence, visual injury on 0 to 100 scale (0 no effect, 100 complete control), approx. 10 d, read-out: Ryegrass, Italian plant response rating): 0%
- pest or weed control at 31 g/ha ([7]; Postemergence, 31 g ai/ha, visual injury after approx. 10 d, 0 to 100 scale, 0 no effect, 100 complete control, read-out: Plant response rating, Ryegrass, Italian): 0%
- pest or weed control at 125 g/ha ([8]; 125 g ai/ha, postemergence, visual injury on 0 to 100 scale (0 no effect, 100 complete control), approx. 10 d, read-out: Ragweed plant response rating): 0%
- pest or weed control at 31 g/ha ([8]; Postemergence, 31 g ai/ha, visual injury after approx. 10 d, 0 to 100 scale, 0 no effect, 100 complete control, read-out: Plant response rating, Ragweed): 0%
- pest or weed control at 125 g/ha ([9]; 125 g ai/ha, postemergence, visual injury on 0 to 100 scale (0 no effect, 100 complete control), approx. 10 d, read-out: Pigweed plant response rating): 0%
- pest or weed control at 31 g/ha ([9]; Postemergence, 31 g ai/ha, visual injury after approx. 10 d, 0 to 100 scale, 0 no effect, 100 complete control, read-out: Plant response rating, Pigweed): 0%
- pest or weed control at 125 g/ha ([10]; 125 g ai/ha, postemergence, visual injury on 0 to 100 scale (0 no effect, 100 complete control), approx. 10 d, read-out: Foxtail, Giant plant response rating): 0%
- pest or weed control at 31 g/ha ([10]; Postemergence, 31 g ai/ha, visual injury after approx. 10 d, 0 to 100 scale, 0 no effect, 100 complete control, read-out: Plant response rating, Foxtail, Giant): 0%
- plant injury at 125 g/ha ([11]; 125 g ai/ha, postemergence, visual injury on 0 to 100 scale (0 no effect, 100 complete control), approx. 10 d, read-out: Corn plant response rating): 0%
- Corn plant response rating (crop injury, 0 = no effect, 100 = complete kill) at 31 g/ha ([11]; Postemergence, 31 g ai/ha, visual injury after approx. 10 d, 0 to 100 scale, 0 no effect, 100 complete control): 0%
- pest or weed control at 125 g/ha ([12]; 125 g ai/ha, postemergence, visual injury on 0 to 100 scale (0 no effect, 100 complete control), approx. 10 d, read-out: Blackgrass plant response rating): 0%
- pest or weed control at 31 g/ha ([12]; Postemergence, 31 g ai/ha, visual injury after approx. 10 d, 0 to 100 scale, 0 no effect, 100 complete control, read-out: Plant response rating, Blackgrass): 0%
- pest or weed control at 125 g/ha ([13]; 125 g ai/ha, postemergence, visual injury on 0 to 100 scale (0 no effect, 100 complete control), approx. 10 d, read-out: Galium plant response rating): 0%
- pest or weed control at 31 g/ha ([13]; Postemergence, 31 g ai/ha, visual injury after approx. 10 d, 0 to 100 scale, 0 no effect, 100 complete control, read-out: Plant response rating, Galium): 0%
- plant injury at 125 g/ha ([14]; 125 g ai/ha, postemergence, visual injury on 0 to 100 scale (0 no effect, 100 complete control), approx. 10 d, read-out: Wheat plant response rating): 0%
- plant injury at 31 g/ha ([14]; Postemergence, 31 g ai/ha, visual injury after approx. 10 d, 0 to 100 scale, 0 no effect, 100 complete control, read-out: Plant response rating, Wheat): 0%
- pest or weed control at 125 g/ha ([15]; 125 g ai/ha, postemergence, visual injury on 0 to 100 scale (0 no effect, 100 complete control), approx. 10 d, read-out: Barnyardgrass plant response rating): 0%
- pest or weed control at 31 g/ha ([15]; Postemergence, 31 g ai/ha, visual injury after approx. 10 d, 0 to 100 scale, 0 no effect, 100 complete control, read-out: Plant response rating, Barnyardgrass): 0%
- pest or weed control at 125 g/ha ([16]; 125 g ai/ha, postemergence, visual injury on 0 to 100 scale (0 no effect, 100 complete control), approx. 10 d, read-out: Kochia plant response rating): 0%
- pest or weed control at 31 g/ha ([16]; Postemergence, 31 g ai/ha, visual injury after approx. 10 d, 0 to 100 scale, 0 no effect, 100 complete control, read-out: Plant response rating, Kochia): 0%
- pest or weed control at 250 g/ha [17]: 90%
- pest or weed control at 250 g/ha [18]: 0%
- pest or weed control at 250 g/ha [19]: 0%
- pest or weed control at 250 g/ha [20]: 0%

— US12077503B2, “Substituted cyclic amides and their use as herbicides” (FMC CORPORATION, priority 2015, dated 2024)
